In US8648116B2, “Derivatives of N-(arylamino) sulfonamides including polymorphs as inhibitors of MEK as well as compositions, methods of use and methods for preparing the same” (Ardea Biosciences, Inc., priority 2005, dated 2014):
Read-outs that look alike come from different tables or passages of the source.

Columns and labels:
SK Mel28 melanoma cells = experiment: Anchorage-dependent growth inhibition (ATP content, 48 hr); type: cell-based, human; conditions: SK Mel 28, separate study
MDA-MB231 cells = experiment: Anchorage-independent growth inhibition (MTS, 7 days); type: cell-based, human
A375 cells = experiment: Cytotoxic lysis by adenylate kinase (AK) release, 48 hr; type: cell-based, human
Procedure: Cell supernatants were analyzed for cytotoxic lysis by measuring adenylate kinase (AK) release. […] The lack of AK release was confirmed for all cell lines tested.
100% viability (ATP assay) was determined in vehicle only control wells.

human tumor cell lines = experiment: In vitro cancer screen (SRB; GI50, TGI, LC50); conditions: for CC50: read-out: LC50
[1] = A549/ATCC (Non-Small Cell Lung Cancer)
[2] = EKVX (Non-Small Cell Lung Cancer)
[3] = HOP-62 (Non-Small Cell Lung Cancer)
[4] = HOP-92 (Non-Small Cell Lung Cancer)
[5] = NCI-H23 (Non-Small Cell Lung Cancer)
[6] = NCI-H226 (Non-Small Cell Lung Cancer)
[7] = NCI-H322M (Non-Small Cell Lung Cancer)
[8] = NCI-H460 (Non-Small Cell Lung Cancer)
[9] = NCI-H522 (Non-Small Cell Lung Cancer)

Compound: COc1cc(F)c(F)c(Nc2ccc(I)cc2F)c1NS(=O)(=O)C1(C[C@H](O)CO)CC1
- GI50 (SK Mel28 melanoma cells): 0.105 µM
- GI50 (MDA-MB231 cells; MDA-MB231, anchorage independent): 0.081 µM
- anchorage independent growth (FIG. 12C) (MDA-MB231 cells; MDA-MB231 cells): inhibition of MDA-M8231 cells
- AK, Cell killing, % Control (A375 cells; 1 uM): 4%
- cytotoxic cell lysis (AK release) (A375 cells; 100% cell killing with 20 μM tamoxifen): lack of cytotoxic cell lysis
- GI50 (human tumor cell lines; 786-0 (Renal Cancer)): 5.13 µM
- TGI (human tumor cell lines; 786-0 (Renal Cancer)): 23.442 µM
- GI50 (human tumor cell lines; A498 (Renal Cancer)): 0.191 µM
- TGI (human tumor cell lines; A498 (Renal Cancer)): 4.169 µM
- GI50 (human tumor cell lines; [1]): 0.589 µM
- TGI (human tumor cell lines; [1]): 64.565 µM
- GI50 (human tumor cell lines; ACHN (Renal Cancer)): 0.275 µM
- TGI (human tumor cell lines; ACHN (Renal Cancer)): 21.878 µM
- GI50 (human tumor cell lines; BT-549 (Breast Cancer)): 5.75 µM
- TGI (human tumor cell lines; BT-549 (Breast Cancer)): 20.893 µM
- GI50 (human tumor cell lines; CAKI-1 (Renal Cancer)): 0.389 µM
- TGI (human tumor cell lines; CAKI-1 (Renal Cancer)): 26.915 µM
- GI50 (human tumor cell lines; CCRF-CEM (Leukemia)): 17.4 µM
- TGI (human tumor cell lines; CCRF-CEM (Leukemia)): 60.256 µM
- GI50 (human tumor cell lines; DU-145 (Prostate Cancer)): 2.14 µM
- TGI (human tumor cell lines; DU-145 (Prostate Cancer)): 22.387 µM
- GI50 (human tumor cell lines; [2]): 0.214 µM
- TGI (human tumor cell lines; [2]): 13.804 µM
- GI50 (human tumor cell lines; HCC-2998 (Colon Cancer)): 0.01 µM
- TGI (human tumor cell lines; HCC-2998 (Colon Cancer)): 0.035 µM
- GI50 (human tumor cell lines; HCT-15 (Colon Cancer)): 0.603 µM
- TGI (human tumor cell lines; HCT-15 (Colon Cancer)): 16.982 µM
- GI50 (human tumor cell lines; HCT-116 (Colon Cancer)): 0.195 µM
- TGI (human tumor cell lines; HCT-116 (Colon Cancer)): 12.589 µM
- GI50 (human tumor cell lines; HL-60(TB) (Leukemia)): 0.01 µM
- TGI (human tumor cell lines; HL-60(TB) (Leukemia)): 100.000 µM
- GI50 (human tumor cell lines; [3]): 0.069 µM
- TGI (human tumor cell lines; [3]): 12.589 µM
- GI50 (human tumor cell lines; [4]): 0.047 µM
- TGI (human tumor cell lines; [4]): 0.324 µM
- GI50 (human tumor cell lines; HS 578T (Breast Cancer)): 0.617 µM
- TGI (human tumor cell lines; HS 578T (Breast Cancer)): 13.490 µM
- GI50 (human tumor cell lines; HT29 (Colon Cancer)): 0.026 µM
- TGI (human tumor cell lines; HT29 (Colon Cancer)): 3.090 µM
- GI50 (human tumor cell lines; IGROV1 (Ovarian Cancer)): 0.018 µM
- TGI (human tumor cell lines; IGROV1 (Ovarian Cancer)): 0.295 µM
- GI50 (human tumor cell lines; K-562 (Leukemia)): 6.61 µM
- TGI (human tumor cell lines; K-562 (Leukemia)): 100.000 µM
- GI50 (human tumor cell lines; KM12 (Colon Cancer)): 0.229 µM
- TGI (human tumor cell lines; KM12 (Colon Cancer)): 13.490 µM
- GI50 (human tumor cell lines; LOX IMVI (Melanoma)): 0.195 µM
- TGI (human tumor cell lines; LOX IMVI (Melanoma)): 10.715 µM
- GI50 (human tumor cell lines; M14 (Melanoma)): 0.015 µM
- TGI (human tumor cell lines; M14 (Melanoma)): 0.166 µM
- GI50 (human tumor cell lines; MALME-3M (Melanoma)): 0.01 µM
- TGI (human tumor cell lines; MALME-3M (Melanoma)): 0.014 µM
- GI50 (human tumor cell lines; MCF7 (Breast Cancer)): 11 µM
- TGI (human tumor cell lines; MCF7 (Breast Cancer)): 30.903 µM
- GI50 (human tumor cell lines; MDA-MB-231 (Breast Cancer)): 0.069 µM
- TGI (human tumor cell lines; MDA-MB-231 (Breast Cancer)): 10.471 µM
- GI50 (human tumor cell lines; MDA-MB-435 (Breast Cancer)): 0.035 µM
- TGI (human tumor cell lines; MDA-MB-435 (Breast Cancer)): 12.303 µM
- GI50 (human tumor cell lines; MDA-MB-468 (Breast Cancer)): 0.019 µM
- TGI (human tumor cell lines; MDA-MB-468 (Breast Cancer)): 10.233 µM
- GI50 (human tumor cell lines; MOLT-4 (Leukemia)): 11 µM
- TGI (human tumor cell lines; MOLT-4 (Leukemia)): 69.183 µM
- GI50 (human tumor cell lines; [5]): 0.056 µM
- TGI (human tumor cell lines; [5]): 2.884 µM
- GI50 (human tumor cell lines; [6]): 3.31 µM
- TGI (human tumor cell lines; [6]): 24.547 µM
- GI50 (human tumor cell lines; [7]): 0.162 µM
- TGI (human tumor cell lines; [7]): 15.488 µM
- GI50 (human tumor cell lines; [8]): 3.63 µM
- TGI (human tumor cell lines; [8]): 19.498 µM
- GI50 (human tumor cell lines; [9]): 5.25 µM
- TGI (human tumor cell lines; [9]): 29.512 µM
- GI50 (human tumor cell lines; NCI/ADR-RES (Breast Cancer)): 3.47 µM
- TGI (human tumor cell lines; NCI/ADR-RES (Breast Cancer)): 25.704 µM
- GI50 (human tumor cell lines; OVCAR-3 (Ovarian Cancer)): 2.51 µM
- TGI (human tumor cell lines; OVCAR-3 (Ovarian Cancer)): 17.783 µM
- GI50 (human tumor cell lines; OVCAR-4 (Ovarian Cancer)): 0.562 µM
- TGI (human tumor cell lines; OVCAR-4 (Ovarian Cancer)): 16.218 µM
- GI50 (human tumor cell lines; OVCAR-5 (Ovarian Cancer)): 0.017 µM
- TGI (human tumor cell lines; OVCAR-5 (Ovarian Cancer)): 12.023 µM
- GI50 (human tumor cell lines; PC-3 (Prostate Cancer)): 8.13 µM
- TGI (human tumor cell lines; PC-3 (Prostate Cancer)): 37.154 µM
- GI50 (human tumor cell lines; RPMI-8226 (Leukemia)): 26.9 µM
- TGI (human tumor cell lines; RPMI-8226 (Leukemia)): 100.000 µM
- GI50 (human tumor cell lines; SF-268 (CNS Cancer)): 2.57 µM
- TGI (human tumor cell lines; SF-268 (CNS Cancer)): 25.704 µM
- GI50 (human tumor cell lines; SF-295 (CNS Cancer)): 9.33 µM
- TGI (human tumor cell lines; SF-295 (CNS Cancer)): 23.442 µM
- GI50 (human tumor cell lines; SF-539 (CNS Cancer)): 1.51 µM
- TGI (human tumor cell lines; SF-539 (CNS Cancer)): 20.417 µM
- GI50 (human tumor cell lines; SK-MEL-5 (Melanoma)): 0.062 µM
- TGI (human tumor cell lines; SK-MEL-5 (Melanoma)): 13.804 µM
- GI50 (human tumor cell lines; SK-MEL-28 (Melanoma)): 0.028 µM
- TGI (human tumor cell lines; SK-MEL-28 (Melanoma)): 0.214 µM
- GI50 (human tumor cell lines; SK-OV-3 (Ovarian Cancer)): 12.9 µM
- TGI (human tumor cell lines; SK-OV-3 (Ovarian Cancer)): 41.687 µM
- GI50 (human tumor cell lines; SN12C (Renal Cancer)): 0.851 µM
- TGI (human tumor cell lines; SN12C (Renal Cancer)): 18.621 µM
- GI50 (human tumor cell lines; SNB-19 (CNS Cancer)): 0.251 µM
- TGI (human tumor cell lines; SNB-19 (CNS Cancer)): 24.547 µM
- GI50 (human tumor cell lines; SNB-75 (CNS Cancer)): 0.302 µM
- TGI (human tumor cell lines; SNB-75 (CNS Cancer)): 4.467 µM
- GI50 (human tumor cell lines; SR (Leukemia)): 38 µM
- TGI (human tumor cell lines; SR (Leukemia)): 100.000 µM
- GI50 (human tumor cell lines; SW-620 (Colon Cancer)): 0.039 µM
- TGI (human tumor cell lines; SW-620 (Colon Cancer)): 12.589 µM
- GI50 (human tumor cell lines; T-47D (Breast Cancer)): 4.9 µM
- TGI (human tumor cell lines; T-47D (Breast Cancer)): 38.019 µM
- GI50 (human tumor cell lines; TK-10 (Renal Cancer)): 0.224 µM
- TGI (human tumor cell lines; TK-10 (Renal Cancer)): 23.442 µM
- GI50 (human tumor cell lines; U251 (CNS Cancer)): 0.891 µM
- TGI (human tumor cell lines; U251 (CNS Cancer)): 17.378 µM
- GI50 (human tumor cell lines; UACC-62 (Melanoma)): 0.014 µM
- TGI (human tumor cell lines; UACC-62 (Melanoma)): 0.170 µM
- GI50 (human tumor cell lines; UACC-257 (Melanoma)): 0.02 µM
- TGI (human tumor cell lines; UACC-257 (Melanoma)): 10.233 µM
- GI50 (human tumor cell lines; UO-31 (Renal Cancer)): 0.158 µM
- TGI (human tumor cell lines; UO-31 (Renal Cancer)): 11.482 µM
- CC50 (human tumor cell lines; HCT-15 (Colon Cancer)): 60.3 µM
- CC50 (human tumor cell lines; HT29 (Colon Cancer)): 29.5 µM
- CC50 (human tumor cell lines; M14 (Melanoma)): 29.5 µM
- CC50 (human tumor cell lines; MDA-MB-435 (Breast Cancer)): 41.7 µM
- CC50 (human tumor cell lines; SF-539 (CNS Cancer)): 60.3 µM
- CC50 (human tumor cell lines; SK-MEL-28 (Melanoma)): 22.4 µM
- CC50 (human tumor cell lines; UACC-62 (Melanoma)): 20.9 µM
